Data: US11298339B2 (priority 2017, dated 2022)

How the values were obtained:
Type in all cases: in vivo, C57BL/6J mice
[1] = tested on: HBV; assay: Compound 1 and SF18 in mouse model established by rAAV8-HBV1.3 (ayw) virus tail vein injection; conditions: 20 mg/kg i.v.
Description: Among them, there were 3 mice in each group. Administration was carried out for consecutive four weeks, blood was collected at orbital margin once per week, and HBsAg/HBeAg levels in supernatant were detected by Roche 601 instrument.

[2] = tested on: HBV; assay: Comparison of Compound 1 and Birinapant in chronic HBV infection mouse model (pAAV-HBV1.2 plasmid); conditions: for proportion of mice with serum HBsAg levels below the lower limit of detection: after 4 weeks of administration; for serum HBsAg level (individual): after one week of drug treatment
Description: Among them, there were 7 mice in each of Group A and Group B, and 6 mice in Group C. Compound 1 and Birinapant were administered once a week for five consecutive weeks. Blood was collected at orbital margin each week before the administration, and the HBsAg/HBeAg levels in supernatant were detected using Roche 601 instrument.

[3] = target: T1, cIAP2 (Mus musculus, UniProt O08863); assay: Western blot of cIAPs molecules in liver tissue after Compound 1 injection; conditions: 10 mg/kg i.v.
T1 construct: Western blot was used to detect the expression of cIAPs molecules in liver tissues; from tissue; host or cells: liver tissue of C57BL/6J mice (HBV model, pAAV-HBV1.2)
Description: (§1) Chronic HBV infection mouse models were established by high-pressure tail vein injection of pAAV-HBV1.2 plasmid or recombinant virus rAAV8-1.3HBV injection of C57BL/6J mice (6 to 8 weeks of age, weight 20 f 2 g). […] Glutamic-oxalacetic transaminase (AST/GOT) kit (Nanjing Jiancheng, C010-2) and glutamic-pyruvic transaminase (ALT/GPT) kit (Nanjing Jiancheng, C009-2) were used to detect serum ALT and AST levels. Western blot was used to detect the expression of cIAPs molecules in liver tissues, and β-actin was used as a control. Intrahepatic inflammation and hepatocyte necrosis were detected by HE staining of liver tissue sections.

[4] = tested on: HBV; assay: Compound 1 in combination with IFNα2a in chronic HBV infection mouse model (pAAV-HBV1.2 plus pKCMvint IFNα-2a or control plasmid)
Description: One day after modeling, the mice were divided into 4 groups. […] There were 5 mice in each group (except Group D that included 7 mice), the administration was performed for consecutive 3 times, i.e., on the day 1 after modeling, and on the days 7 and 14 after modeling; blood was collected once at orbital margin one day before the administration, and serum HBsAg/HBeAg levels were detected using Roche 601 instrument.

[5] = tested on: HBV; assay: Compound 1 in combination with anti-PD1 antibody in chronic HBV infection mouse model (pAAV-HBV1.2 plasmid)
Description: Among them, there were 7 mice in each group.

[6] = tested on: HBV; assay: Compound 1 in combination with TDF in pAAV-HBV1.2 high-pressure tail vein injection mouse model; conditions: Compound 1 10 mg/kg i.v. weekly x4; TDF 53 mg/kg gavage daily 10 days; observed 7 weeks
Description: After the mice serum were diluted 20-fold with PBS, the HBsAg and HBeAg titers of the serum were detected by using Abbott i2000SR microparticle chemiluminescence automatic detector. The serum HBV DNA was extracted by QIAamp DNA Mini Kit (Qiagen), the HBV DNA level in serum was quantified by Realtime-PCR (LightCycler 480, Roche) using DNA Amplification SYBR Green Kit (Roche), and the HBV plasmid PSM2 products with a series of concentration gradients were used as standards. The HBV primers used in this experiment were synthesized by Invitrogen (Shanghai) Trading Co., Ltd., and the primer sequences were as follows: HBV Hope-F (5′ to 3′ […]) and HBV Hope-R (5′ to 3′ […]). The liver tissues of mice were subjected to conventional formalin-fixation and paraffin-embedding, the resultant 4 μm sections were baked at 65° C. for 2 h, dehydrated with conventional ethanol gradients, infiltrated with hydrogen peroxide at room temperature for 30 min, washed with PBS for 5 min/time, 3 times in total, and blocked at room temperature for 1 h. […]

[7] = tested on: HBV; assay: Compound 1 alone in chronic HBV infection mouse model (high-pressure tail vein injection of pAAV-HBV1.2 plasmid)
Description: Male C57/B6 mice (6-8 weeks of age, body weight 20 f 2 g) were selected to establish a high-pressure tail vein injection mouse model, in which the tail of mice was wiped with 75% alcohol, and then irradiated with a far-infrared physiotherapy device for 2 to 3 minutes so that the tail vein of mice was turgid and clearly visible. […] Each mouse was injected with 10 μg of pAAV/HBV1.2 plasmid, and the amount of injection liquid (PBS) was 10% of body weight (2 mL/20 g). On the 14th day after the injection, blood was collected to detect HBsAg, and the successfully modeled mice with HBsAg>500 IU/ml were selected for further experiments (Huang, Wu et al. 2006; Chou, Chien et al. 2015). […] There were 6-8 mice in each group, which were administered once a week for 4 consecutive times and observed for 7 weeks.
After the mice serum were diluted 20-fold with PBS, the HBsAg and HBeAg titers of the serum were detected by using Abbott i2000SR microparticle chemiluminescence automatic detector. The serum HBV DNA was extracted by QIAamp DNA Mini Kit (Qiagen), the HBV DNA level in serum was quantified by Realtime-PCR (LightCycler 480, Roche) using DNA Amplification SYBR Green Kit (Roche), and the HBV plasmid PSM2 products with a series of concentration gradients were used as standards. The HBV primers used in this experiment were synthesized by Invitrogen (Shanghai) Trading Co., Ltd., and the primer sequences were as follows: HBV Hope-F (5′ to 3′ […]) and HBV Hope-R (5′ to 3′ […]). The liver tissues of mice were subjected to conventional formalin-fixation and paraffin-embedding, the resultant 4 μm sections were baked at 65° C. for 2 h, dehydrated with conventional ethanol gradients, infiltrated with hydrogen peroxide at room temperature for 30 min, washed with PBS for 5 min/time, 3 times in total, and blocked at room temperature for 1 h. After rabbit-anti-human HBcAg (B0586, DAKO) was added and incubated in a wet box at room temperature for 1 h, a GTvision III immunohistochemical detection kit of anti-rabbit anti-mice general type (GK50075, Shanghai Gene Technology Co., Ltd.) was used for incubation of secondary antibodies and development of color, and pictures at 200× magnification were taken with a normal optical upright microscope. 60 mg of liver tissue homogenate was weighed, added with 900 μl of lysate (50 mmol/L Tris-HCl PH 7.5+1 mmol/L EDTA), placed on ice, and after all samples were processed, 5 μl of […] was added and lysis was performed on ice, and then HBV DNA in liver tissue was extracted with phenol/chloroform, dissolved by adding 15 μl of RNase free water, run on a 1% agarose gel, transferred to membrane; then a full-length HBV probe labeled with digoxin was added, stood overnight at 46° C., subjected to DIG Washing Buffer once for 5 min, added with Anti-Digoxigenin-Ap Fab fragment (11093274910, Roche), and Image Quant LAS 4000mini was used for exposure and detection.

[8] = Liver damage after Compound 1 injection in HBV-infected mice (serum ALT/AST, HE staining of liver sections)
Description: as §1

[9] = tested on: HBV-specific T cell response; assay: HBV immune response in mice: liver lymphocyte counts and HBV-specific T cell response (flow cytometry, Core93-100 stimulation); conditions: 20 mg/kg once a week x4, 7th week
Description: There were 5 to 6 mice in each group, which were administered once a week for four consecutive times, and sacrificed on the 7th week, the mice liver lymphocytes were isolated, and cell counts and flow cytometry were used to detect the expression of CD4 and CD8 molecules in lymphocytes in the liver. The detection of HBV-specific T cell response was performed by using HBV core monopeptide (Core93-100) to stimulate lymphocytes, and the counts of CD4+ and CD8+ T cells that secreted IFNγ, TNFα and IL-2 were detected by flow cytometry cytokine intracellular staining method.

[10] = tested on: HBcAg-positive liver cells; assay: Apoptosis of HBV-infected liver cells, HBcAg immunofluorescence and Tunnel double staining, rAAV8-HBV1.3 virus injection mouse model; conditions: 20 mg/kg i.v.; 12 h after injection
Description: as §1

[11] = Compound 1 20 mg/kg i.v. once per week, anti-PD1 antibody 200 μg/mice/time i.p. twice per week, five weeks
[12] = 20 mg/kg i.v. once a week x4, on the 5th week, faster than 10 mg/kg group
[13] = Compound 1 injection groups (10 and 20 mg/kg i.v., once a week x4), up to the 7th week
[14] = 10 mg/kg i.v., 12, 24, 48 hours after injection
[15] = stimulation with HBV core monopeptide (Core93-100)

T1 sequence (O08863 whole entry): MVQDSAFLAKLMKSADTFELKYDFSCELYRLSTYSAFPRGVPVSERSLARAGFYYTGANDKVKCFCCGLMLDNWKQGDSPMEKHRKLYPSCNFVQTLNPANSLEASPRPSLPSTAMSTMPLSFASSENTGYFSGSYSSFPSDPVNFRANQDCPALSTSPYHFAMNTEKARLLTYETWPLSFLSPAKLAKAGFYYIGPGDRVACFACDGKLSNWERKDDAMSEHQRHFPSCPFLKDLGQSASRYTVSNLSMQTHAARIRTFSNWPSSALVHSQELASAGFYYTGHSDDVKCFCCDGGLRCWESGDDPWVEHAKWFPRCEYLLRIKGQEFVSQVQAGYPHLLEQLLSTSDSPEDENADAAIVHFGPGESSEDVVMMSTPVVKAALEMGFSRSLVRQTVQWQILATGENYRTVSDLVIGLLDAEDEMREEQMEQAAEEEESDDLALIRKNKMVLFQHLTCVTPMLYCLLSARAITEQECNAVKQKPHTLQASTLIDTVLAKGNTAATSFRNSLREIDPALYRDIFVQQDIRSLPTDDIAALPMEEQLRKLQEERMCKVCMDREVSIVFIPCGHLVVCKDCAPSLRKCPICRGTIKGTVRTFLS

What does the source list for `CN[C@@H](C)C(=O)N[C@H]1CN(C(=O)Nc2ccc(NC(=O)N3CC[C@H]4CC[C@@H](C(=O)NC(c5ccccc5)c5ccccc5)N4C(=O)[C@@H](NC(=O)[C@H](C)NC)C3)cc2)CC[C@H]2CC[C@@H](C(=O)NC(c3ccccc3)c3ccccc3)N2C1=O` [SF18]?
deaths during administration ([1]; 3 mice in the group): one mice died on the 2nd week and 4th week; anti-HBV effect (conclusion) ([1]; four weeks): stronger than that of Compound 1; decrease rate of HBeAg in mice serum ([1]; four weeks): significantly faster than those of the Compound 1 group; decrease rate of HBsAg in mice serum ([1]; four weeks): significantly faster than those of the Compound 1 group

Which results are given for `CN[C@@H](C)C(=O)N[C@H]1CN(S(=O)(=O)c2cccc(S(=O)(=O)N3CC[C@H]4CC[C@@H](C(=O)NC(c5ccccc5)c5ccccc5)N4C(=O)[C@@H](NC(=O)[C@H](C)NC)C3)c2)CC[C@H]2CCC(C(=O)NC(c3ccccc3)c3ccccc3)N2C1=O` (stereo partly drawn) [Compound 1]?
clearance effect of HBsAg (overall level) vs saline injection group ([2]; 20 mg/kg i.v. once a week, five weeks): statistically significant difference; proportion of mice with serum HBsAg levels below the lower limit of detection ([2]; 20 mg/kg i.v. once a week): 86%; serum HBsAg level (individual) ([2]; 20 mg/kg i.v.): decreased significantly; serum HBsAg level compared with Brinapant group ([2]; 20 mg/kg i.v., after one week, p=0.035): significantly lower than that of the Brinapant group; clearance effect of HBsAg and HBeAg, overall comparison ([2]; same dosage and mode of administration (20 mg/kg i.v.)): superior to Birinapant; time at which inhibition of cIAP2 reached the strongest value [3]: 12 h; inhibitory effect on cIAP2 in liver tissues (Western blot) ([3]; 12, 24, 48 h): strong inhibitory effect; serum HBsAg compared with Group C (IFNα-2a) ([4]; 21st day, P 0.008): decreased significantly; serum HBeAg compared with Group A (saline) ([4]; days 7, 14, 21 (P 0.004 on 7th day, 0.021 on 7th day as printed, 0.001 on 21st day)): statistically significant differences; serum HBsAg compared with Group A (saline) ([4]; days 7, 14, 21 (P 0.010, 0.008, 0.004), Compound 1 10 mg/kg i.v. days 1, 7, 14, IFNα-2a plasmid-expressed): statistically significant differences; serum HBeAg (individual) compared with Group A (saline) ([5]; 1st and 2nd weeks (P 0.029, 0.009)): statistically significant differences; serum HBeAg compared with Group C (anti-PD1 antibody) ([5]; 1st and 2nd weeks, P week 1 0.016 (Group B), 0.007 (Group D), week 2 0.007, 0.002): decreased more significantly; serum HBeAg level (overall) [5, 11]: significantly reduce; serum HBsAg level (overall) [5, 11]: significantly reduce; serum HBsAg clearance rate in comparison with control group [6]: statistically significant differences; serum HBV DNA [7, 12]: completely eliminated; serum HBsAg [7, 12]: completely eliminated; HBV replication intermediate in liver tissue (Southern blot) ([7]; 7 weeks after administration, compared with saline group): no HBV replication intermediate was detected; serum HBV DNA [7, 13]: below the detection limit; serum HBsAg [7, 13]: below the detection limit; HBcAg expression in liver (immunohistochemical staining) ([7]; after 7 weeks of administration): not observed; anti-HBV effect (conclusion) ([1]; four weeks): anti-HBV effect; time at which serum ALT returned to normal levels ([8]; 10 mg/kg i.v.): around 48 hours; time at which serum ALT rose to the highest value ([8]; 10 mg/kg i.v.): 12 h; time at which serum AST returned to normal levels ([8]; 10 mg/kg i.v.): around 48 hours; time at which serum AST rose to the highest value ([8]; 10 mg/kg i.v.): 12 h; serum ALT change after injection [8, 14]: transient increase; serum AST change after injection [8, 14]: transient increase; liver tissue HE staining ([8]; 10 mg/kg i.v., 12 hours after injection, vicinity of portal areas, with lymphocyte infiltration): scattered necrotic lesions; intrahepatic inflammation / fulminant hepatitis ([8]; after Compound 1 injection, only transient intrahepatic inflammation): did not cause fulminant hepatitis; count of infiltrated CD4+ T cells in the liver vs control [9]: significantly increased; count of infiltrated CD8+ T cells in the liver vs control [9]: significantly increased; total lymphocyte number in the liver vs normal saline control [9]: significantly higher; counts of CD4+ T cells that secreted IFNγ, TNFα and IL-2 [9, 15]: increased significantly; counts of CD8+ T cells that secreted IFNγ, TNFα and IL-2 [9, 15]: increased significantly; apoptosis of HBcAg-positive liver cells [10]: could be induced

Which “proportion of mice with serum HBsAg levels below the lower limit of detection” value ([2]; 20 mg/kg i.v. once a week) does the source give for `CC[C@H](NC(=O)[C@H](C)NC)C(=O)N1C[C@@H](O)C[C@H]1Cc1c(-c2[nH]c3cc(F)ccc3c2C[C@@H]2C[C@H](O)CN2C(=O)[C@H](CC)NC(=O)[C@H](C)NC)[nH]c2cc(F)ccc12` [Birinapant, reference compound] here?
Its value is 57%.

What about the “serum HBsAg level (individual)” value ([2]; 20 mg/kg i.v.) of the same compound?
The value was “decreased significantly”.
